Several values for one entry are separate records, joined by “and”; a condition that tells them apart may be missing. Equal values may be shown once.
Test system: 5α-reductase
Assay: in-vivo inhibitory activity of 5α-reductase: haematic levels of DHT in rats after oral administration
Design: species or system rat
Conditions: for Seric concentrations of DHT: individual rat values; for Seric concentrations of DHT, average: basal average 335.7
Method: A study was carried out to determine in-vivo the inhibitory activity of 5α-reductase on the part of a total extract deriving from a cellular culture of Ajuga reptans.
The study was effected by determining the haematic levels of DHT (5α-dihydrotestosterone) on rats after administration of the extract being studied.
For the in-vivo study of the inhibition of 5α-reductase, Sprague-Dawley adult male rats were used (Charles River Italia) having a body weight of 200-250 g.
The animals were stalled under standard conditions: at a temperature of 22/23° C., with 65% relative humidity, exposing them to illumination cycles of 12 h light/12 h darkness.
A standard diet in the form of pellets (standard diet, Charles River) was administered to the rats, with water ad libitum
The experimentation was carried out according to protocols authorized by the Committee for the Care and Use of Animals of the Università degli Studi of Milan. Tests were carried out on the rats, effected from the retro-orbital plexus, immediately before the pharmalogical treatment (t0) and subsequently at a distance of 3, 6 and 8 hours after administration.
The administration of the substances being studied was effected orally.
In correspondence with each test on the animals treated, tests were also effected on non-treated animals to determine the basal analyte level. Both testosterone and DHT are in fact characterized by a significant circadian fluctuation.
The plasma obtained from the whole blood treated with EDTA after centrifugation was preserved at −20° C. until dosage.
The plasmatic concentrations of DHT (dihydrotestosterone) were determined with a commercial kit (DSL, Chematil, Angri, SA) after extraction of the samples.
All the samples of an experimental set were dosed together to reduce the inter-analytic variability.

CC(C)(C)NC(=O)[C@H]1CC[C@H]2[C@@H]3CC[C@H]4NC(=O)C=C[C@]4(C)[C@H]3CC[C@]12C [Finasteride]
Seric concentrations of DHT (Finasteride 1 mg oral, 3 hrs): 569.6 pg/mL and 404.6 pg/mL and 530.0 pg/mL and 298.1 pg/mL and 505.3 pg/mL and 300.0 pg/mL | Seric concentrations of DHT, average (Finasteride 1 mg oral, 3 hrs, n=6): 434.6 pg/mL | Seric concentrations of DHT (Finasteride 1 mg oral, 6 hrs): 592.1 pg/mL and 148.5 pg/mL and 420.1 pg/mL and 404.1 pg/mL and 565.0 pg/mL and 379.6 pg/mL | Seric concentrations of DHT, average (Finasteride 1 mg oral, 6 hrs, n=6): 418.2 pg/mL | Seric concentrations of DHT (Finasteride 1 mg oral, 8 hrs): 530.1 pg/mL and 173.1 pg/mL and 110.0 pg/mL and 706.7 pg/mL and 140.1 pg/mL and 503.9 pg/mL | Seric concentrations of DHT, average (Finasteride 1 mg oral, 8 hrs, n=6): 360.6 pg/mL | Seric concentrations of DHT (Finasteride 5 mg oral, 3 hrs): 641.0 pg/mL and 924.2 pg/mL and 569.4 pg/mL and 217.1 pg/mL and 618.6 pg/mL and 151.2 pg/mL | Seric concentrations of DHT, average (Finasteride 5 mg oral, 3 hrs, n=6): 520.2 pg/mL | Seric concentrations of DHT (Finasteride 5 mg oral, 6 hrs): 49.7 pg/mL and 128.3 pg/mL and 176.9 pg/mL and 81.2 pg/mL and 205.2 pg/mL and 103.6 pg/mL and 54.4 pg/mL and 60.7 pg/mL | Seric concentrations of DHT, average (Finasteride 5 mg oral, 6 hrs, n=8): 107.5 pg/mL | Seric concentrations of DHT (Finasteride 5 mg oral, 8 hrs): 576.6 pg/mL and 250.9 pg/mL and 300.1 pg/mL and 201.6 pg/mL and 108.8 pg/mL and 745.4 pg/mL | Seric concentrations of DHT, average (Finasteride 5 mg oral, 8 hrs, n=6): 363.9 pg/mL | trend of the concentration of DHT after administration (rats, oral, vs. basal levels): 8 hours after treatment, the DHT rises returning to the basal levels

Reference: patent US8178136B2, “Composition based on vegetal extracts of Ajuga reptans for preventing hair loss, stimulating the growth of hair, regulating the production of sebum” (Giuliani S.p.A., priority 2005, dated 2012)
